From patent US20080139564A1, “SUBSTITUTED PHENYL PROPYL AMINES AS HISTAMINE H3 RECEPTOR AND SEROTONIN TRANSPORTER MODULATORS” (priority 2006, published 2008)

Columns and labels:
Rat SERT = target: T1, Rat SERT (Rattus norvegicus, UniProt P31652); experiment: Rat brain SERT binding ([3H]-Citalopram displacement, rat brain membranes); details: 0.6 nM [3H]-Citalopram, 60 min at 25° C.
T1 construct: A rat brain without cerebellum (Zivic Laboratories, Inc.—Pittsburgh, Pa.) was homogenized; tissue Zivic Laboratories, Inc; host or cells: rat brain without cerebellum
T1 sequence (P31652 whole entry): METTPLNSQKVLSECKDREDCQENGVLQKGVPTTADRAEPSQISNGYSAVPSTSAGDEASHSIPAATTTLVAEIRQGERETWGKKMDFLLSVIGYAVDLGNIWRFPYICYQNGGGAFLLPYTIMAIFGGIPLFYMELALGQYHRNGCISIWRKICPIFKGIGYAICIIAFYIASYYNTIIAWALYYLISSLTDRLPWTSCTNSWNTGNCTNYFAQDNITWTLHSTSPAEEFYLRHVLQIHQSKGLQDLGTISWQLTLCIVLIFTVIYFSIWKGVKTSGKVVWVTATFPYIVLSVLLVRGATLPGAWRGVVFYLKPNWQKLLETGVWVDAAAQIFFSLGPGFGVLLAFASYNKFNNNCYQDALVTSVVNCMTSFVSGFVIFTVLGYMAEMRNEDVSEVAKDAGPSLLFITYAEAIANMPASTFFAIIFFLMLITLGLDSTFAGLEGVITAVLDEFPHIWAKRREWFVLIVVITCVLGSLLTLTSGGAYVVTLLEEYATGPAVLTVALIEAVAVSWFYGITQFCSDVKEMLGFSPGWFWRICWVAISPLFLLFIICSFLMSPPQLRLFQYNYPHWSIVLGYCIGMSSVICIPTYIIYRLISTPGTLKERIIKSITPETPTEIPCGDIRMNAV
Description: A rat brain without cerebellum (Zivic Laboratories, Inc.—Pittsburgh, Pa.) was homogenized in a 52.6 mM Tris pH 8/126.4 mM NaCl/5.26 mM KCl mixture and centrifuged at 1,000 rpm for 5 min. The supernatant was removed and re-centrifuged at 15,000 rpm for 30 min. Pellets were re-homogenized in a 52.6 mM Tris pH8/126.4 mM NaCl/5.26 mM KCl mixture. Membranes were incubated with 0.6 nM [^3H]-Citalopram plus/minus test compounds for 60 min at 25° C. and harvested by rapid filtration over GF/C glass fiber filters (pretreated with 0.3% polyethylenimine) followed by four washes with ice-cold buffer. Nonspecific binding was defined in the presence of 100 μM fluoxetine.

human H3 receptor = target: T2, human H3 receptor (Homo sapiens, UniProt Q9Y5N1); experiment: H3 receptor binding (N-[3H]-α-methylhistamine displacement, SK-N-MC cell membranes); details: 0.8 nM N-[3H]-α-methylhistamine, 60 min at 25° C.
T2 construct: expressed in transfected cells
T2 sequence (Q9Y5N1 whole entry): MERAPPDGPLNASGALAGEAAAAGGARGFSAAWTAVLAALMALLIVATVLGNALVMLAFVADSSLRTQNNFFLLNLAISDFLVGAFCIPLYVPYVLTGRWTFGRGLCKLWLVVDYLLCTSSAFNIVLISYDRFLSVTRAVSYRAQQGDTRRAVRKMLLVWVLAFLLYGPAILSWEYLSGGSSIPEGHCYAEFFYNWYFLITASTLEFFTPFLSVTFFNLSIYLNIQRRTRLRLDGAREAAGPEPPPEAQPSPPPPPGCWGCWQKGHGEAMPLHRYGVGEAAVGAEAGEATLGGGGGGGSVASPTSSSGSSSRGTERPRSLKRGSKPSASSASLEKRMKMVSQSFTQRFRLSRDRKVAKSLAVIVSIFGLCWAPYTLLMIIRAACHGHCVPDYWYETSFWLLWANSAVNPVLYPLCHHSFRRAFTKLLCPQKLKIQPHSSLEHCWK
Description: Binding of compounds to the cloned human H3 receptor, stably expressed in SK-N-MC cells, was performed (Lovenberg, T. W. et al. J. Pharmacol. Exp. Ther. 2000, 293, 771-778). Briefly, cell pellets from SK-N-MC cells expressing the human H3 receptor were homogenized in 50 mM Tris-HCl/5 mM EDTA and re-centrifuged at 30,000 g for 30 min. Pellets were re-homogenized in 50 mM Tris/5 mM EDTA (pH 7.4). Membranes were incubated with 0.8 nM N—[^3H]-α-methylhistamine plus/minus test compounds for 60 min at 25° C. and harvested by rapid filtration over GF/C glass fiber filters (pretreated with 0.3% polyethylenimine) followed by four washes with ice-cold buffer. Nonspecific binding was defined in the presence of 10 μM histamine.

human SERT = target: T3, human SERT (Homo sapiens, UniProt P31645); experiment: Human SERT binding (3H-citalopram displacement, HEK293 membranes); details: 3H-citalopram 3.1 nM, rt for 1 h
T3 construct: expressed in transfected cells; host or cells: HEK293
T3 sequence (P31645 whole entry): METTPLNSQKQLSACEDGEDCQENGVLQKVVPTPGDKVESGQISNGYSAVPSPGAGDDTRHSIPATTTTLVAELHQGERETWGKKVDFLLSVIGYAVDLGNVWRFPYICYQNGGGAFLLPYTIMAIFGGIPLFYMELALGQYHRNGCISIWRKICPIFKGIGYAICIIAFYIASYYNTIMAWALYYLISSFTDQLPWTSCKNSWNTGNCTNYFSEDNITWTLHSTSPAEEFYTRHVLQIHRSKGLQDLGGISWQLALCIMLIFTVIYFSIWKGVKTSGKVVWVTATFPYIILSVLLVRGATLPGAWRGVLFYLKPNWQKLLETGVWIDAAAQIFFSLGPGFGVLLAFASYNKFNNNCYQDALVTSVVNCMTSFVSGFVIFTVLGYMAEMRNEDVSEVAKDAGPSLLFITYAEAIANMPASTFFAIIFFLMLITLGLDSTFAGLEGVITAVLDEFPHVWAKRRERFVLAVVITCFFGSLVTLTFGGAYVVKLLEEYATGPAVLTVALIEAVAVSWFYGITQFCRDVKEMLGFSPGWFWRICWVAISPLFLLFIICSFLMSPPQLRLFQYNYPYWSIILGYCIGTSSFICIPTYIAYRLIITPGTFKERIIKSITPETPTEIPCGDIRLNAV
Description: Homogenized HEK293 (Human Embryonic Kidney) membranes expressing the human SERT were incubated with ^3H-citalopram (SERT) at rt for 1 h in 50 mM Tris, 120 mM NaCl, 5 mM KCl (pH 7.4). Nonspecific binding was determined in the presence of 10 μM fluoxetine for the SERT. The membranes were washed and the radioactivity was counted as above. Calculations for Ki at the SERT were based on a Kd value for ^3H-citalopram and a ligand concentration of 3.1 nM.

Ki (Rat SERT) [nM]	Ki (human H3 receptor) [nM]	Ki (human SERT) [nM]	Structure (SMILES)
9.7			CN(C)CCC(Oc1ccc(Cl)c(Cl)c1)c1ccc(OCCCN2CCCCC2)cc1 (single isomer, unassigned; (+)) [Example 75, (+)-{3-(3,4-Dichloro-phenoxy)-3-[4-(3-piperidin-1-yl-propoxy)phenyl]-propyl}-dimethyl-amine]
11			CN(C)CCC(Oc1ccc(Cl)c(Cl)c1)c1ccc(OCCCN2CCCCC2)cc1 (single isomer, unassigned; (-)) [Example 74, (−){3-(3,4-Dichloro-phenoxy)-3-[4-(3-piperidin-1-yl-propoxy)phenyl]-propyl}-dimethyl-amine]
537	75		CN(C)CCC(Oc1ccc(C#CCCN2CCSCC2)cc1)c1ccc(C(F)(F)F)cc1 (centres unmarked) [Example 76, Dimethyl-[3-[4-(4-thiomorpholin-4-yl-but-1-ynyl)-phenoxy]-3-(4-trifluoromethyl-phenyl)-propyl]-amine]
52	18		CN(C)CCC(Oc1ccc(C#CCCN2CCSCC2)cc1)c1ccccc1 (centres unmarked) [Example 63, Dimethyl-{3-phenyl-3-[4-(4-thiomorpholin-4-yl-but-1-ynyl)phenoxy]-propyl}-amine]
165	364		CN(C)CCC(Oc1ccc(C#CCCN2CCCCC2)cc1)c1ccc(F)cc1 (centres unmarked) [Example 77, {3-(4-Fluoro-phenyl)-3-[4-(4-piperidin-1-yl-but-1-ynyl)-phenoxy]-propyl}-dimethyl-amine]
150	29		CN(C)CCC(Oc1ccc(C#CCCN2CCSCC2)cc1)c1ccc(Cl)cc1 (centres unmarked) [Example 58, {3-(4-Chloro-phenyl)-3-[4-(4-thiomorpholin-4-yl-but-1-ynyl)phenoxy]-propyl}-dimethyl-amine]
223	22		CN(C)CCC(Oc1ccc(C(F)(F)F)cc1)c1ccc(C(=O)N2CCN(C3CCCCC3)CC2)cc1 (centres unmarked) [Example 78, (4-Cyclohexyl-piperazin-1-yl)-{4-[3-dimethylamino-1-(4-trifluoromethyl-phenoxy)-propyl]-phenyl}-methanone]
166	143		CC(C)N1CCN(CCC#Cc2ccc(OC(CCN(C)C)c3ccc(C(F)(F)F)cc3)cc2)CC1 (centres unmarked) [Example 62, [3-{4-[4-(4-Isopropyl-piperazin-1-yl)-but-1-ynyl]-phenoxy}-3-(4-trifluoromethyl-phenyl)-propyl]-dimethyl-amine]
181	56		CN(C)CCC(Oc1ccc(C#CCCN2CCOCC2)cc1)c1ccc(Cl)cc1 (centres unmarked) [Example 59, {3-(4-Chloro-phenyl)-3-[4-(4-morpholin-4-yl-but-1-ynyl)-phenoxy]-propyl}-dimethyl-amine]
342	4000		CN(C)CCC(Oc1ccc(C#CCCN2CCOCC2)cc1)c1ccc(C(F)(F)F)cc1 (centres unmarked) [Example 64, Dimethyl-[3-[4-(4-morpholin-4-yl-but-1-ynyl)-phenoxy]-3-(4-trifluoromethyl-phenyl)-propyl]-amine]
108	102		CN(C)CCC(Oc1ccc(C#CCCN2CCOCC2)cc1)c1ccccc1 (centres unmarked) [Example 61, Dimethyl-{3-[4-(4-morpholin-4-yl-but-1-ynyl)-phenoxy]-3-phenyl-propyl}-amine]

The remaining lines, values behind:

Structure (SMILES)	Ki (Rat SERT) [nM]	Ki (human H3 receptor) [nM]	Ki (human SERT) [nM]
CN(C)CCC(Oc1ccc(C#N)cc1)c1ccc(OCCCN2CCCCC2)cc1 (centres unmarked) [Example 5, 4-{3-Dimethylamino-1-[4-(3-piperidin-1-yl-propoxy)-phenyl]-propoxy}-benzonitrile]	8	0.2	158
CN(C)CCC(Oc1ccc(C(F)(F)F)cc1)c1ccc(CCCCN2CCCCC2)cc1 (centres unmarked) [Example 33, Dimethyl-[3-[4-(4-piperidin-1-yl-butyl)-phenyl]-3-(4-trifluoromethylphenoxy)-propyl]-amine]	3	23	5
CN(C)CCC(Oc1ccc(Cl)cc1Cl)c1ccc(OCCCN2CCCCC2)cc1 (centres unmarked) [Example 16, {3-(2,4-Dichloro-phenoxy)-3-[4-(3-piperidin-1-yl-propoxy)-phenyl]-propyl}-dimethyl-amine]	7	0.9	10
CN(C)CCC(Oc1ccc(C(F)(F)F)cc1)c1ccc(C#CCCN2CCOCC2)cc1 (centres unmarked) [Example 27, Dimethyl-[3-[4-(4-morpholin-4-yl-but-1-ynyl)-phenyl]-3-(4-trifluoromethyl-phenoxy)-propyl]-amine]	80	60	
CN(C)CCC(Oc1ccccc1)c1ccc(C#CCCN2CCOCC2)cc1 (centres unmarked) [Example 23, Dimethyl-{3-[4-(4-morpholin-4-yl-but-1-ynyl)-phenyl]-3-phenoxy-propyl}-amine]	13	19	37
CC(C)N1CCN(CCC#Cc2ccc(C(CCN(C)C)Oc3ccc(C(F)(F)F)cc3)cc2)CC1 (centres unmarked) [Example 29, [3-{4-[4-(4-Isopropyl-piperazin-1-yl)-but-1-ynyl]-phenyl}-3-(4-trifluoromethyl-phenoxy)-propyl]-dimethyl-amine]	39	255	
CN(C)CCC(Oc1ccc(C(F)(F)F)cc1)c1ccc(C#CCCN2CCSCC2)cc1 (centres unmarked) [Example 28, Dimethyl-[3-[4-(4-thiomorpholin-4-yl-but-1-ynyl)-phenyl]-3-(4-trifluoromethyl-phenoxy)-propyl]-amine]	170	122	
CN(C)CCC(Oc1ccc([N+](=O)[O-])cc1)c1ccc(OCCCN2CCCCC2)cc1 (centres unmarked) [Example 12, Dimethyl-{3-(4-nitro-phenoxy)-3-[4-(3-piperidin-1-yl-propoxy)phenyl]-propyl}-amine]	4	0.9	9
CN(C)CCC(Oc1ccc(Cl)cc1)c1ccc(OCCCN2CCCCC2)cc1 (centres unmarked) [Example 8, {3-(4-Chloro-phenoxy)-3-[4-(3-piperidin-1-yl-propoxy)-phenyl]-propyl}-dimethyl-amine]	2	1.7	16
CCCCN1CCN(C(=O)c2ccc(C(CCN(C)C)Oc3ccc(C(F)(F)F)cc3)cc2)CC1 (centres unmarked) [Example 48, (4-Butyl-piperazin-1-yl)-{4-[3-dimethylamino-1-(4-trifluoromethylphenoxy)-propyl]-phenyl}-methanone]	86	17	
COc1ccc(OC(CCN(C)C)c2ccc(OCCCN3CCCCC3)cc2)cc1 (centres unmarked) [Example 7, {3-(4-Methoxy-phenoxy)-3-[4-(3-piperidin-1-yl-propoxy)-phenyl]-propyl}-dimethyl-amine]	2	0.9	60
CC(C)N1CCN(C(=O)c2ccc(OC(CCN(C)C)c3ccc(C(F)(F)F)cc3)cc2)CC1 (centres unmarked) [Example 46, {4-[3-Dimethylamino-1-(4-trifluoromethyl-phenyl)-propoxy]-phenyl}-(4-isopropyl-piperazin-1-yl)-methanone]	58	1	
CN(C)CCC(Oc1cccc(Cl)c1)c1ccc(OCCCN2CCCCC2)cc1 (centres unmarked) [Example 14, {3-(3-Chloro-phenoxy)-3-[4-(3-piperidin-1-yl-propoxy)-phenyl]-propyl}-dimethyl-amine]		1.7	7
CN(C)CCC(Oc1ccc(Cl)c(Cl)c1)c1ccc(C#CCCN2CCCCC2)cc1 (centres unmarked) [Example 30, {3-(3,4-Dichloro-phenoxy)-3-[4-(4-piperidin-1-yl-but-1-ynyl)phenyl]-propyl}-dimethyl-amine]	21	24	
CN(C)CCC(Oc1ccc(Cl)c(Cl)c1)c1ccc(OCCCN2CCCCC2)cc1 (centres unmarked) [Example 9, {3-(3,4-Dichloro-phenoxy)-3-[4-(3-piperidin-1-yl-propoxy)-phenyl]-propyl}-dimethyl-amine]	6		
COc1ccc(OC(CCN(C)C)c2ccc(C#CCCN3CCSCC3)cc2)cc1 (centres unmarked) [Example 26, {3-(4-Methoxy-phenoxy)-3-[4-(4-thiomorpholin-4-yl-but-1-ynyl)phenyl]-propyl}-dimethyl-amine]	43	11	
CN(C)CCC(Oc1ccc(Cl)cc1)c1ccc(C#CCCN2CCCCC2)cc1 (centres unmarked) [Example 25, {3-(4-Chloro-phenoxy)-3-[4-(4-piperidin-1-yl-but-1-ynyl)-phenyl]-propyl}-dimethyl-amine]	39	21	
CCCCN1CCN(Cc2ccc(C(CCN(C)C)Oc3ccc(C(F)(F)F)cc3)cc2)CC1 (centres unmarked) [Example 49, [3-[4-(4-Butyl-piperazin-1-ylmethyl)-phenyl]-3-(4-trifluoromethylphenoxy)-propyl]-dimethyl-amine]	48	73	
